Data reported in article PMC10108821, “Three tyrosine kinase inhibitors cause cardiotoxicity by inducing endoplasmic reticulum stress and inflammation in cardiomyocytes” (BMC Medicine, 2023).

Columns and labels:
[1] = test system: ER stress genes in NRCMs; test: qRT-PCR of ER stress genes in NRCMs; format: cell-based, rat; details: afatinib 5.62 µM, sorafenib 3.16 μM, ponatinib 1.78 μM
[2] = test system: patients; details: cited from earlier work
[3] = test system: Sprague-Dawley rats; test: Rat gavage cardiotoxicity model: survival, heart and body weight; details: day 7; ponatinib 15 mg/kg, sorafenib 50 mg/kg gavage once daily
Description: (§1) All experiments were performed in accordance with relevant guidelines and regulations approved by the Institutional Animal Care and Use Committee (IACUC) at Peking University Health Science Center. Sprague-Dawley rats (170-200g) were purchased from Beijing Vital River Laboratory Animal Technology. Forty-eight male rats were randomly divided into six groups, with 8 animals per group. […] The gavage was done daily starting at 10am. At the end of the experiments, rats were euthanized by CO2 about 5~6 hours after the last gavage, and then hearts were harvested for further study. Left ventricular muscle was dissected and divided into 3 parts with similar size, one of which was used for RNA extraction and qRT-PCR.

[4] = test system: Cor.4U hiPSC-CMs; test: 3'DGE-UMI RNAseq transcriptome of hiPSC-CMs
[5] = test system: NRCMs; test: Calcium staining with Calbryte 520 AM; format: cell-based, rat; details: 0.5 and 1 h; 10 µM afatinib, 10 µM sorafenib, 5.62 µM ponatinib
[6] = test system: rat left ventricles; test: Rat gavage cardiotoxicity model: qRT-PCR in left ventricles; format: in vivo; details: ponatinib 15 mg/kg, sorafenib 50 mg/kg gavage, 3 or 7 days
Description: as §1
RNA was isolated based on a standard protocol using TRIzol reagent (Vazyme). TRIzol (1ml per 1 well of a 6-well plate) was used to lyse cells and chloroform was added for RNA separation. Samples were shaked vigorously by hand for 15 seconds and incubated at room temperature for 2-3 minutes. RNA was present in the aqueous phase after centrifuge at 12000 x g for 15 minutes. Isopropyl alcohol was mixed to precipitate RNA from the aqueous phase. […] 1 μg total RNA was used for cDNA synthesis using a reverse transcription kit (Bioman). We then measured expression of genes of interest with SYBRR Green qPCR Mix (Bioman) using Applied Biosystems 7500 Quantitative PCR Instrument. […]

[7] = test system: NRCMs; test: Seahorse assay: oxygen consumption and extracellular acidification; format: cell-based, rat; details: 24 h; fixed doses: 10 µM, crizotinib and ponatinib 3.16 µM
[8] = test system: HELP hiPSC-CMs; test: CardioExcyte 96 microelectrode array: base impedance and extracellular field potential; format: cell-based, human; details: fixed doses: 10 µM, crizotinib and ponatinib 3.16 µM; up to 24 h
Summary of the method: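 HELP hiPSC-CMs plated at 50,000 cells/well on 96-well microelectrode arrays, cultured 3-5 days until impedance and field potential stabilized. Recordings before and every 30~60 min after drug addition (added at 2x); beat rate, impedance amplitude, base impedance and FPDc averaged over 3 wells.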

[9] = test system: Phospho-eIF2α, XBP1s, ATF6 (cleaved); test: Western blot of ER stress effectors in NRCMs; format: cell-based, rat
Description: Cells were homogenized in the RIPA lysis buffer (Applygen) containing protease and phosphatase inhibitor cocktails (Bimake). The extract was spun at 12,000xg for 20min at 4°C. Total protein was measured by BCA (Thermofisher) and resolved by sodium dodecyl sulfate–polyacrylamide gel electrophoresis (SDS-PAGE). Proteins were blotted to polyvinylidene difluoride membranes (Amersham). Blots were blocked with non-fat milk (BBI Life Sciences) and incubated with antibodies against ATF6 (proteintech), phospho-eIF2α (ABclonol), XBP1 (ABclonol) and GAPDH (proteintech). Goat anti-rabbit IgG, goat anti-mouse IgG were incubated with the blots for 1 hour at room temperature. After 3 washes with 1xTBST (50 mM Tris-Cl, 150 mM NaCl, 0.1% Tween 20, pH 7.5), the blots were developed with the ECL Plus Kit (Absin). Relative protein expression was quantified by optical density and normalized to GAPDH.

[10] = test system: TNNT2 protein in NRCMs; test: TNNT2 immunofluorescence; format: cell-based, rat; details: 24 h; 10 µM afatinib, 10 µM sorafenib, 5.62 µM ponatinib
Description: Cells cultured in multi-well plates were fixed with 4% paraformaldehyde (Sigma) for 30 minutes at room temperature, washed 3 times with PBS, and permeabilized with 0.2% Tritonx100 (Applygen) for 15 minutes. Then, cells were blocked with 5% normal goat serum (Bioss) for 1-hr at room temperature and probed with primary antibodies against TNNT2 (proteintech) or NF-κB (CST) overnight at 4°C. Secondary antibodies (Jackson Immuno Research Laboratories, Inc.) and 0.4ug/mL DAPI (Coolaber) were applied at room temperature for 1 hour. Immunofluorescence pictures were taken by ImageXpress Micro Confocal-AWES (Molecular Devices).

SMILES: CNC(=O)c1cc(Oc2ccc(NC(=O)Nc3ccc(Cl)c(C(F)(F)F)c3)cc2)ccn1 [sorafenib]
- temporal activation of ER stress genes, 72 versus 24 h [1]: most gene targets of ER stress were downregulated over time
- myocardial ischemia ([2]; clinical trials): 2.7–3%
- level of cardiotoxicity based on literature reports ([2]; ref Table S1, 2, 4, 26–36): high-levels of cardiotoxicity
- heart or body weight [3]: not changed
- expression of tRNA aminoacylation gene markers (SARS, GARS) ([4]; Cluster 3): increased
- expression of genes associated with ER stress (ATF4, NUPR1, DDIT3, TRIB3, CHAC1, SESN2, HERPUD1) ([4]; high PC1 loadings, ponatinib at high dose): upregulated
- cytosolic calcium concentration [5]: significant cytosolic overload of Ca^2+
- gene expression of Anp [6]: did not induce a significant change
- basal oxygen consumption rate (OCR) [7]: significant inhibition
- maximal, spare and non-mitochondrial oxygen consumption [7]: inhibited maximal, spare, and non-mitochondrial oxygen consumption significantly
- effect on beat rate, contraction, base impedance and corrected field potential duration [8]: stopped beating and contraction of hiPSC-CMs after 0.5 h of treatment
- duration of activated eIF2α phosphorylation [9]: 6 h
- TNNT2 protein (cardiac Troponin T2) [10]: had the most effect
